Experimental data: patent US20240398817A1, “CARDIO- AND RENOSAFE ANTIDIABETIC THERAPY” (priority 2018, published 2024)
Entries after “also recorded” stand apart in the source; their conditions may differ.

System: patients with type 2 diabetes at high vascular risk
Test: Cardiovascular and Renal Outcomes Trial: linagliptin 5 mg once daily vs placebo on top of standard of care
Type: in vivo
Details: for Albuminuria progression: patients, %: of 2162 analysed; for Hospitalisation for heart failure vs placebo, in words: subgroup without insulin use at baseline
Experimental: The effect of linagliptin on cardiovascular risk in adult patients with type 2 diabetes mellitus and with increased CV risk evidenced by a history of established macrovascular or renal disease (e.g. as defined herein) was evaluated in a multi-center, multi-national, randomized, double-blind parallel group trial. The trial compared the risk of experiencing a major adverse cardiovascular event (MACE) between linagliptin and placebo when these were added to and used concomitantly with standard of care treatments for diabetes (HbA1c), cardiovascular risk factors and renal disease.
The primary endpoint in this trial was the time to first occurrence of three point (3P) MACE. A major adverse cardiac event was defined as a cardiovascular death or a nonfatal myocardial infarction (MI) or a nonfatal stroke. The statistical analysis plan tested for non-inferiority for the occurrence of (3P) MACE. […] The secondary endpoint was a renal composite, defined as renal death or sustained end stage renal disease or sustained decrease of 40% or more in eGFR.
Type 2 diabetes patient with insufficient glycemic control (naïve or pre-treated with any antidiabetic background medication, excluding treatment with GLP-1 receptor agonists, DPP-4inhibitors or SGLT-2 inhibitors if ≥consecutive 7 days, e.g. having HbA1c 6.5-10%), and high risk of cardiovascular events, e.g. defined by: • albuminuria (micro or macro) and previous macrovascular disease: e.g. defined according to Condition I as indicated below; • and/or • impaired renal function: e.g. as defined according to Condition II as indicated below;
Background and aims: People with type 2 diabetes (T2D) are at increased risk for hospitalization for heart failure (hHF), particularly in the setting of concomitant cardiovascular (CV) and/or kidney disease. […] Here we present analyses of HF outcomes with the DPP-4 inhibitor linagliptin (LINA) vs. placebo (PBO) from a Cardiovascular and Renal Outcomes Trial assessing cardiovascular safety and renal microvascular outcome in patients with type 2 diabetes at high vascular risk, a large CV outcomes trial that enrolled participants with T2D at high risk for hHF due to concomitant CV and/or chronic kidney disease. Materials and methods: People with T2D and concomitant CV and/or kidney disease were randomized to receive LINA 5 mg, or PBO once daily (1:1), on top of standard of care. All hHF, CV outcomes, and deaths were centrally adjudicated, with individual and composite HF-related outcomes analyses comparing LINA vs. placebo. Investigator-reported HF-related adverse events, whether or not confirmed by adjudication, were also analyzed. A Cox proportional hazards model adjusting for region and history of HF was used for analyses of first events. Recurrent hHF events were analyzed using a negative binomial model.
Methods: The present Cardiovascular and Renal Outcomes Trial randomized people with T2D and i) concomitant CV disease with UACR >30 mg/g or ii) prevalent CKD (i.e. GFR <45 ml/min/1.73m2 and/or UACR >200 mg/g) to receive the DPP-4 inhibitor linagliptin (5 mg) or placebo once daily in a double-blind fashion. The primary CV endpoint was 3P-MACE, with a key secondary kidney endpoint (adjudicated ESKD, renal death, or sustained ≥40% decrease in eGFR from baseline) and other renal outcomes (including albuminuria and eGFR slope) also assessed. Subgroups were assessed by baseline kidney function (eGFR ≥/<45 ml/min/1.73m2and eGFR ≥/<30, 45 or 60 ml/min/1.73m2).
Adults with type 2 diabetes, HbA1c 6.5-10.0% inclusive, and high CV risk were eligible for inclusion. […] Macrovascular disease eligibility criteria was based on documented and confirmed history of myocardial infarction, coronary artery disease, stroke, carotid artery disease, or peripheral artery disease. Participants with end-stage kidney disease (ESKD), defined as eGFR <15 or requiring maintenance dialysis, were excluded.

CC#CCn1c(N2CCC[C@@H](N)C2)nc2c1c(=O)n(Cc1nc(C)c3ccccc3n1)c(=O)n2C [Linagliptin, 1-[(4-methyl-quinazolin-2-yl)methyl]-3-methyl-7-(2-butyn-1-yl)-8-(3-(R)-amino-piperidin-1-yl)-xanthine]
Hospitalization for unstable angina: rate/1000 patient-years (in vivo): 5.5 per 1000 patient years
Hypersensitivity reactions, all AEs: % (in vivo): 3.3%
Hypersensitivity reactions, all AEs: N (in vivo): 114
Investigator reported HF events: HR vs placebo (in vivo): 0.87
Investigator reported HF events: events (in vivo): 243
Investigator reported hypoglycemia: % (in vivo): 29.7%
Investigator reported hypoglycemia: N (in vivo): 1036
New initiation of loop diuretics or hHF: HR vs placebo (in vivo): 0.95
New initiation of loop diuretics or hHF: participants (in vivo): 330/2530
New introduction of loop diuretics: HR vs placebo (in vivo): 0.94
New introduction of loop diuretics: participants (in vivo): 318/2530
Non-cardiovascular death: % (in vivo): (3.2) %
Non-cardiovascular death: hazard ratio vs placebo (in vivo): 1.02
Non-cardiovascular death: no. (in vivo): 112
Non-cardiovascular death: rate/1000 patient-years (in vivo): 14.3 per 1000 patient years
Non-fatal myocardial infarction: % (in vivo): (4.5) %
Non-fatal myocardial infarction: hazard ratio vs placebo (in vivo): 1.15
Non-fatal myocardial infarction: no. (in vivo): 156
Non-fatal myocardial infarction: rate/1000 patient-years (in vivo): 20.6 per 1000 patient years
Non-fatal stroke: % (in vivo): (1.9) %
Non-fatal stroke: hazard ratio vs placebo (in vivo): 0.88
Non-fatal stroke: no. (in vivo): 65
Non-fatal stroke: rate/1000 patient-years (in vivo): 8.5 per 1000 patient years
Pancreatic cancer: % (in vivo): 0.3%
Pancreatic cancer: N (in vivo): 11
Participants with ≥2 hHF events: % (in vivo): 1.7%
Participants with ≥2 hHF events: n (in vivo): 60
Pemphigoid (bullous pemphigoid): % (in vivo): 0.2%
Pemphigoid (bullous pemphigoid): N (in vivo): 7
Reduction of risk of albuminuria progression compared to placebo (in vivo): about 14%
Reduction of risk of microvascular renal and/or eye complications compared to placebo (in vivo): about 14%
Renal death, sustained ESKD, or sustained decrease of 50% or more in eGFR from baseline: hazard ratio vs placebo (in vivo): 0.98
Risk of HHF regardless of baseline renal function, in words (in vivo): did not affect the risk of HHF
Risk of albuminuria progression vs placebo, in words (in vivo): significantly reduced
Risk of hospitalization for heart failure, in words (in vivo): no increase in the risk
Serious adverse events: % (in vivo): 37.0%
Serious adverse events: N (in vivo): 1293
Skin lesions: % (in vivo): 0.1%
Skin lesions: N (in vivo): 5
Stent thrombosis, hospitalisation for peripheral vascularisation, retinopathy-related endpoints vs placebo, in words (in vivo): no significant difference
Sustained decrease of 30% or more in eGFR with eGFR <60; and renal death, sustained ESRD or CV death vs placebo, in words (in vivo): no significant difference
Time to first event of investigator reported events or adjudicated hHF: HR vs placebo (in vivo): 0.92
Time to first event of investigator reported events or adjudicated hHF: events (in vivo): 305
eGFR changes over time and transition in CKD status vs placebo, in words (in vivo): no clinically meaningful differences
eGFR slope (MDRD): between-group difference vs placebo, estimate ± SE (in vivo): −0.175 ± 0.151 /year
eGFR-slope, in words (in vivo): unaffected
hHF or all-cause mortality: HR vs placebo (in vivo): 0.95
hHF or all-cause mortality: events (in vivo): 499
4-point MACE: % (in vivo, listed as linagliptin): 13.3%
Acute pancreatitis, adjudication confirmed: N (in vivo, listed as linagliptin): 9
Albuminuria progression: hazard ratio (95% CI) vs placebo (in vivo, listed as linagliptin): 0.86
Albuminuria progression: rate/100 patient-years (in vivo, listed as linagliptin): 21.4 per 100 patient-years
Hospitalization for heart failure or cardiovascular death: % (in vivo, listed as linagliptin): 11.6%
Skin lesions: % (in vivo, listed as linagliptin): 0.2%
Risk of major adverse cardiovascular events (3P-MACE) vs placebo, in words (median follow up 2.2 years): non-inferior to placebo
Risk of renal outcome events vs placebo, in words (median follow up 2.2 years): did not increase the risk
Risk of major adverse cardiovascular events (3P-MACE) vs placebo, in words (median follow up 2.2 years, listed as linagliptin): did not increase the risk
Any adverse events: N (n = 3494): 2697
eGFR slope (MDRD) from baseline to last value on treatment/year, estimate ± SE (n = 6740 both groups): −2.459 ± 0.106 /year
hHF events (first+recurrent): rate ratio vs placebo (negative binomial model): 0.94
Albuminuria progression: patients, %: (35.3) %
Albuminuria progression: patients, % (listed as linagliptin): 35.3%
Contributing to composite microvascular outcome: patients with albuminuria progression, % (of n = 3494): 21.3%
Albuminuria progression: number of patients (patients analysed 2162 (n = 4291 both groups)): 763
Rate of hypoglycemia compared to placebo, in words (patients taking sulfonylurea at baseline): numerically higher rate
Incidence of severe hypoglycaemia (patients using insulin at baseline): 4.4%
Incidence of severe hypoglycaemia (patients using sulfonylurea at baseline): 2.0%
Time to onset of intensification or initiation of insulin vs placebo, in words (patients without insulin use at baseline): later
Cumulative number of hHF events (first+recurrent) (recurrent events analysis): 326
Patients who achieved glycaemic control at the end of the study irrespective of antidiabetic medication: % (study end): 29.0%
Patients who achieved glycaemic control at the end of the study irrespective of antidiabetic medication: n (study end): 1012
Proportion achieving glycaemic control at study end without additional or increased antidiabetic medication vs placebo, in words (study end visit): significantly greater
Risk of hHF vs placebo, in words (subgroup baseline SBP <140 mmHg): statistically lower risk of hHF
Risk of hHF vs placebo, in words (subgroup enrolled from North America or Asia, listed as LINA): nominally significant reductions
Risk of hHF vs placebo, in words (subgroup enrolled from North America or Asia, listed as linagliptin): Statistically significant lower risk of hHF
Hospitalisation for heart failure vs placebo, in words (listed as LINA): nominally significant reduction
Hospitalisation for heart failure vs placebo, in words (listed as linagliptin): favouring linagliptin in patients without insulin; also recorded: Statistically significant lower risk of hHF
4P-MACE, CV death, all-cause mortality, and MI-related endpoints vs placebo, in words (tertiary endpoints): no significant differences
Fatal and non-fatal stroke and transient ischaemic attack vs placebo, in words (tertiary endpoints): no significant differences
hHF; CV death or hHF; all-cause mortality or hHF; heart failure AEs vs placebo, in words (tertiary endpoints): no significant differences
Severe hypoglycemic event (requiring assistance): % (treated population): 3.0%
Severe hypoglycemic event (requiring assistance): N (treated population): 106
UACR vs placebo, in words (up to Week 132): statistically significant and clinically meaningful reduction
UACR: difference at week 36 (gMean ratio of relative change for linagliptin versus placebo) (week 36): 0.87
UACR: difference at week 84 (gMean ratio of relative change for linagliptin versus placebo) (week 84): 0.88
